Assay results: patent US5308608A, “Photosensitizing Diels-Alder porphyrin derivatives” (University of British Columbia, priority 1992, dated 1994)

Tested on: MI-S
Experiment: In vitro photosensitizing cytotoxicity (LD50) on cell line MI-S, 700-820 nm light for 30 minutes
Format: cell-based
Conditions: eosin-Y exclusion or tritium-labeled thymidine uptake
Protocol: Various invention compounds were assayed in vitro using either cell line P815 or MI-S as model systems to test their photosensitizing activity. In the standard protocol, various concentrations of test compounds were added to washed suspensions of cells from cultures of the target cells and the mixtures were then irradiated using 700-820 nm light for 30 minutes. The results were assayed by determining cytotoxicity using direct counting using eosin-Y exclusion, a standard procedure for differentiating living from dead cells.
In other determinations conducted as above, the cells recovered from light exposure were assayed for viability by incubating them for 18 hours in 10 mCi/ml tritium-labeled thymidine according to the standard procedure whereby thymidine incorporation is equated with viability. The cells were harvested and radioactivity uptake was measured by a scintillation counter.

CCc1c(C)c2cc3nc(cc4[nH]c(cc5nc(cc1[nH]2)C1(C)C5=CCC2C(=O)N(c5ccccc5)C(=O)C21)c(C)c4CC)C1(C)C3=CCC2C(=O)N(c3ccccc3)C(=O)C21 (stereo not shown) [Compound 12]
LD50: 100 ng
